Results as given in the NIST ThermoML archive (doi:10.1021/je8003707).
± gives the expanded uncertainty stated by the source.

Details: 101 kPa, Liquid; for viscosity: Capillary tube (Ostwald / Ubbelohde) method; for mass density: Pycnometric method

With `CCCCCCC` [heptane] as the compound, how does the viscosity (288.15 K) read?
The viscosity was 0.441 ± 0.007 mPa·s.

And the mass density (288.15 K)?
The mass density was 688.1 ± 0.3 kg/m3.

What about the viscosity (293.15 K) of the same compound?
The viscosity was 0.417 ± 0.007 mPa·s.

What about the mass density (293.15 K) of the same compound?
The mass density was 683.8 ± 0.3 kg/m3.

And the viscosity (298.15 K)?
Its viscosity is 0.396 ± 0.007 mPa·s.

And the mass density (298.15 K)?
Its mass density is 679.7 ± 0.3 kg/m3.

What about the viscosity (303.15 K) of the same compound?
The viscosity was 0.375 ± 0.007 mPa·s.

And the mass density (303.15 K)?
The mass density was 675.4 ± 0.3 kg/m3.

And the viscosity (308.15 K)?
The viscosity was 0.356 ± 0.007 mPa·s.

What about the mass density (308.15 K) of the same compound?
Its mass density is 671.1 ± 0.3 kg/m3.

What does the source list for `C1CCCCC1` [cyclohexane]?
viscosity (288.15 K): 1.077 ± 0.011 mPa·s; mass density (288.15 K): 783.3 ± 0.3 kg/m3; viscosity (293.15 K): 0.984 ± 0.01 mPa·s; mass density (293.15 K): 778.6 ± 0.3 kg/m3; viscosity (298.15 K): 0.903 ± 0.01 mPa·s; mass density (298.15 K): 773.9 ± 0.3 kg/m3; viscosity (303.15 K): 0.83 ± 0.009 mPa·s; mass density (303.15 K): 769.2 ± 0.3 kg/m3; viscosity (308.15 K): 0.764 ± 0.009 mPa·s; mass density (308.15 K): 764.5 ± 0.4 kg/m3
